The text below walks through data of patent US9376425B2, “Heterocyclic compounds as MDM2 inhibitors for the treatment of cancer” (AMGEN INC., priority 2011, dated 2016).

Some results are limits rather than exact numbers.

T1 sequence (Q00987 1-188): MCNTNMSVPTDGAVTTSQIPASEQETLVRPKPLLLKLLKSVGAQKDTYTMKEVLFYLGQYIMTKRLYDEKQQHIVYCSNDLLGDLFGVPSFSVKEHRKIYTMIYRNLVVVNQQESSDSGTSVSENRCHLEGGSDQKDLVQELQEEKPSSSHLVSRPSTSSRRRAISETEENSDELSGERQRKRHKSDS

The experiment has as its target T1, human MDM2 (GST-hMDM2 1-188), interaction with biotinylated-p53 (1-83) (Homo sapiens, UniProt Q00987).
T1 construct: Amino acid residues 1-188 of human MDM2 were expressed; made in house; host or cells: Escherichia coli
As to the kind of experiment: improved HTRF assay (HTRF2 assay), inhibition of HDM2-p53 interaction. In kind it is binding. The settings on record: 0.2 nM GST-hMDM2, 0.5 nM biotinylated-p53, 100 mM KF. Summed up: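 Time-resolved fluorescence (HTRF) read after >4 h equilibration with SA-XLent/anti-GST cryptate/KF detection reagents. Reaction: compound plus GST-hMDM2 for 20 min at room temperature, then E. coli-expressed biotinylated p53 residues 1-83 for 60 min, 2% DMSO final. Inhibition expressed versus nutlin-3.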
Broadly, the IC50 is the concentration that gives 50% inhibition. High values mean weaker potency, low ones greater potency. Take `CC(C)(C)S(=O)(=O)C[C@H](C1CC1)N1C(=O)[C@@H](CC(=O)O)O[C@H](c2ccc(Cl)c(Cl)c2)[C@H]1c1ccc(Cl)cc1` (single isomer, unassigned) [Example 319, 2-((2R,5R,6R)-4-((S)-2-(tert-Butylsulfonyl)-1-cyclopropylethyl)-5-(4-chlorophenyl)-6-(3,4-dichlorophenyl)-3-oxomorpholin-2-yl)acetic acid or 2-((2S,5R,6R)-4-((S)-2-(tert-butylsulfonyl)-1-cyclopropylethyl)-5-(4-chlorophenyl)-6-(3,4-dichlorophenyl)-3-oxomorpholin-2-yl)acetic acid]: inhibition was half-maximal at 113 nM (IC50).
`CC(C)(C)S(=O)(=O)C[C@H](C1CC1)N1C(=O)[C@@H](CC(=O)O)O[C@H](c2ccc(F)c(Cl)c2)[C@H]1c1ccc(Cl)cc1` (single isomer, unassigned) [Example 320, 2-((2R,5R,6R)-4-((S)-2-(tert-Butylsulfonyl)-1-cyclopropylethyl)-6-(3-chloro-4-fluorophenyl)-5-(4-chlorophenyl)-3-oxomorpholin-2-yl)acetic acid or 2-((2S,5R,6R)-4-((S)-2-(tert-butylsulfonyl)-1-cyclopropylethyl)-6-(3-chloro-4-fluorophenyl)-5-(4-chlorophenyl)-3-oxomorpholin-2-yl)acetic acid] registered an IC50 of 3 nM.
Take `CC(C)(C)S(=O)(=O)C[C@H](C1CC1)N1C(=O)[C@@H](CC(=O)O)O[C@H](c2ccc(F)c(Cl)c2)[C@H]1c1ccc(Cl)cc1` (single isomer, unassigned) [Example 321, 2-((2R,5R,6R)-4-((S)-2-(tert-Butylsulfonyl)-1-cyclopropylethyl)-6-(3-chloro-4-fluorophenyl)-5-(4-chlorophenyl)-3-oxomorpholin-2-yl)acetic acid or 2-((2S,5R,6R)-4-((S)-2-(tert-butylsulfonyl)-1-cyclopropylethyl)-6-(3-chloro-4-fluorophenyl)-5-(4-chlorophenyl)-3-oxomorpholin-2-yl)acetic acid]: the IC50 was determined as 2 nM.
The figure for `CC(C)(C)SC[C@H](C1CC1)N1C(=O)[C@@H](CC(=O)O)O[C@H](c2ccc(Br)c(Cl)c2)[C@H]1c1ccc(Cl)cc1` (single isomer, unassigned) [Example 322, 2-((2R,5R,6R)-6-(4-Bromo-3-chlorophenyl)-4-((S)-2-(tert-butylthio)-1-cyclopropylethyl)-5-(4-chlorophenyl)-3-oxomorpholin-2-yl)acetic acid or 2-((2S,5R,6R)-6-(4-bromo-3-chlorophenyl)-4-((S)-2-(tert-butylthio)-1-cyclopropylethyl)-5-(4-chlorophenyl)-3-oxomorpholin-2-yl)acetic acid] is 51 nM; for `CC(C)(C)SC[C@H](C1CC1)N1C(=O)[C@@H](CC(=O)O)O[C@H](c2ccc(Br)c(Cl)c2)[C@H]1c1ccc(Cl)cc1` (single isomer, unassigned) [Example 323, 2-((2R,5R,6R)-6-(4-Bromo-3-chlorophenyl)-4-((S)-2-(tert-butylthio)-1-cyclopropylethyl)-5-(4-chlorophenyl)-3-oxomorpholin-2-yl)acetic acid or 2-((2S,5R,6R)-6-(4-bromo-3-chlorophenyl)-4-((S)-2-(tert-butylthio)-1-cyclopropylethyl)-5-(4-chlorophenyl)-3-oxomorpholin-2-yl)acetic acid] it is 16 nM; for `CC(C)(C)S(=O)(=O)C[C@H](C1CC1)N1C(=O)[C@@H](CC(=O)O)O[C@H](c2ccc(C#N)c(Cl)c2)[C@H]1c1ccc(Cl)cc1` (single isomer, unassigned) [Example 324, 2-((2R,5R,6R)-4-((S)-2-(tert-Butylsulfonyl)-1-cyclopropylethyl)-6-(3-chloro-4-cyanophenyl)-5-(4-chlorophenyl)-3-oxomorpholin-2-yl)acetic acid or 2-((2S,5R,6R)-4-((S)-2-(tert-butylsulfonyl)-1-cyclopropylethyl)-6-(3-chloro-4-cyanophenyl)-5-(4-chlorophenyl)-3-oxomorpholin-2-yl)acetic acid] it is 7 nM.
For the compound `CC(C)(C)S(=O)(=O)C[C@H](C1CC1)N1C(=O)[C@@H](CC(=O)O)O[C@H](c2ccc(C#N)c(Cl)c2)[C@H]1c1ccc(Cl)cc1` (single isomer, unassigned) [Example 325, 2-((2R,5R,6R)-4-((S)-2-(tert-Butylsulfonyl)-1-cyclopropylethyl)-6-(3-chloro-4-cyanophenyl)-5-(4-chlorophenyl)-3-oxomorpholin-2-yl)acetic acid or 2-((2S,5R,6R)-4-((S)-2-(tert-butylsulfonyl)-1-cyclopropylethyl)-6-(3-chloro-4-cyanophenyl)-5-(4-chlorophenyl)-3-oxomorpholin-2-yl)acetic acid], the midpoint of inhibition, the IC50, lay at 4 nM.
As to `COc1ccc([C@H]2O[C@H](CC(=O)O)C(=O)N([C@H](CSC(C)(C)C)C3CC3)[C@@H]2c2ccc(Cl)cc2)cc1Cl` (single isomer, unassigned) [Example 328, 2-((2R,5R,6R)-4-((S)-2-(tert-Butylthio)-1-cyclopropylethyl)-6-(3-chloro-4-methoxyphenyl)-5-(4-chlorophenyl)-3-oxomorpholin-2-yl)acetic acid or 2-((2S,5R,6R)-4-((S)-2-(tert-butylthio)-1-cyclopropylethyl)-6-(3-chloro-4-methoxyphenyl)-5-(4-chlorophenyl)-3-oxomorpholin-2-yl)acetic acid], the IC50 was 12 nM.
With `CC[C@@H](CN(c1ccccc1F)S(=O)(=O)C1CC1)N1C(=O)[C@@](C)(CC(=O)O)O[C@H](c2cccc(Cl)c2)[C@H]1c1ccc(Cl)cc1` (single isomer, unassigned) [Example 329, 2-((2R,5R,6R)-6-(3-Chlorophenyl)-5-(4-chlorophenyl)-4-((S)-1-(N-(2-fluorophenyl)cyclopropanesulfonamido)butan-2-yl)-2-methyl-3-oxomorpholin-2-yl)acetic acid or 2-((2S,5R,6R)-6-(3-chlorophenyl)-5-(4-chlorophenyl)-4-((S)-1-(N-(2-fluorophenyl)cyclopropanesulfonamido)butan-2-yl)-2-methyl-3-oxomorpholin-2-yl)acetic acid], the IC50 was 138 nM.
`CC[C@@H](CN(c1ccccc1F)S(=O)(=O)C1CC1)N1C(=O)[C@@](C)(CC(=O)O)O[C@H](c2cccc(Cl)c2)[C@H]1c1ccc(Cl)cc1` (single isomer, unassigned) [Example 330, 2-((2R,5R,6R)-6-(3-Chlorophenyl)-5-(4-chlorophenyl)-4-((S)-1-(N-(2-fluorophenyl)cyclopropanesulfonamido)butan-2-yl)-2-methyl-3-oxomorpholin-2-yl)acetic acid or 2-((2S,5R,6R)-6-(3-chlorophenyl)-5-(4-chlorophenyl)-4-((S)-1-(N-(2-fluorophenyl)cyclopropanesulfonamido)butan-2-yl)-2-methyl-3-oxomorpholin-2-yl)acetic acid] returned an IC50 of 1 nM.
In the case of `C[C@]1(CC(=O)O)O[C@H](c2cccc(Cl)c2)[C@@H](c2ccc(Cl)cc2)N([C@H](CN(c2ccccc2F)S(=O)(=O)C2CC2)C2CC2)C1=O` (single isomer, unassigned) [Example 331, 2-((2R,5R,6R)-6-(3-Chlorophenyl)-5-(4-chlorophenyl)-4-((S)-1-cyclopropyl-2-(N-(2-fluorophenyl)cyclopropanesulfonamido)ethyl)-2-methyl-3-oxomorpholin-2-yl)acetic acid or 2-((2S,5R,6R)-6-(3-chlorophenyl)-5-(4-chlorophenyl)-4-((S)-1-cyclopropyl-2-(N-(2-fluorophenyl)cyclopropanesulfonamido)ethyl)-2-methyl-3-oxomorpholin-2-yl)acetic acid], the IC50 was less than 1 nM.
Take `C[C@]1(CC(=O)O)O[C@H](c2cccc(Cl)c2)[C@@H](c2ccc(Cl)cc2)N([C@H](CN(c2ccccc2F)S(=O)(=O)C2CC2)C2CC2)C1=O` (single isomer, unassigned) [Example 332, 2-((2R,5R,6R)-6-(3-Chlorophenyl)-5-(4-chlorophenyl)-4-((S)-1-cyclopropyl-2-(N-(2-fluorophenyl)cyclopropanesulfonamido)ethyl)-2-methyl-3-oxomorpholin-2-yl)acetic acid or 2-((2S,5R,6R)-6-(3-chlorophenyl)-5-(4-chlorophenyl)-4-((S)-1-cyclopropyl-2-(N-(2-fluorophenyl)cyclopropanesulfonamido)ethyl)-2-methyl-3-oxomorpholin-2-yl)acetic acid]: the midpoint of inhibition, the IC50, lay at 27 nM.
The figure for `O=C(O)C[C@@]1(CC(F)(F)F)O[C@H](c2cccc(Cl)c2)[C@@H](c2ccc(Cl)cc2)N([C@H](CN(c2ccccc2F)S(=O)(=O)C2CC2)C2CC2)C1=O` (single isomer, unassigned) [Example 333, 2-((2S,5R,6R)-6-(3-Chlorophenyl)-5-(4-chlorophenyl)-4-((S)-1-cyclopropyl-2-(N-(2-fluorophenyl)cyclopropanesulfonamido)ethyl)-3-oxo-2-(2,2,2-trifluoroethyl)morpholin-2-yl)acetic acid or 2-((2R,5R,6R)-6-(3-chlorophenyl)-5-(4-chlorophenyl)-4-((S)-1-cyclopropyl-2-(N-(2-fluorophenyl)cyclopropanesulfonamido)ethyl)-3-oxo-2-(2,2,2-trifluoroethyl)morpholin-2-yl)acetic acid] is 199 nM.
To `CC(C)(C)S(=O)(=O)C[C@H](C1CC1)N1C(=O)[C@@](C)(CC(=O)O)O[C@H](c2cccc(Cl)c2)[C@H]1c1ccc(Cl)cc1` (single isomer, unassigned) [Example 334, 2-((2R,5R,6R)-4-((S)-2-(tert-Butylsulfonyl)-1-cyclopropylethyl)-6-(3-chlorophenyl)-5-(4-chlorophenyl)-2-methyl-3-oxomorpholin-2-yl)acetic acid or 2-((2S,5R,6R)-4-((S)-2-(tert-butylsulfonyl)-1-cyclopropylethyl)-6-(3-chlorophenyl)-5-(4-chlorophenyl)-2-methyl-3-oxomorpholin-2-yl)acetic acid] belongs less than 1 nM.
